Where “and” joins values, the source holds several entries; their conditions need not be identical. Identical values can stand only once. Inconclusive results and toxic doses are left out.
System: P388 leukemia ip, CD2F1 mice, survival T/C
Test: NCI In Vivo Anticancer Drug Screen. Data for tumor model P388 Leukemia (intraperitoneal) in CD2F1 (CDF1) mice
Details: endpoint: median survival time, higher = longer survival
Procedure, shortened: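 Mice carrying the transplanted tumor received test compound or vehicle. Survival was recorded in each group, and the value is the treated-group measurement divided by that of the vehicle-treated control group.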

[1] = dose: 12.5 mg/kg/injection, schedule: Q01DX009 (ip), vehicle: saline with Tween-80
[2] = dose: 25.0 mg/kg/injection, schedule: Q01DX009 (ip), vehicle: saline with Tween-80
[3] = dose: 50.0 mg/kg/injection, schedule: Q01DX009 (ip), vehicle: saline with Tween-80
[4] = dose: 12.5 mg/kg/injection, schedule: Q04DX003 (ip), vehicle: saline
[5] = dose: 100.0 mg/kg/injection, schedule: Q04DX003 (ip), vehicle: Klucel (hydroxypropylcellulose) (HPC)
[6] = dose: 200.0 mg/kg/injection, schedule: Q04DX003 (ip), vehicle: Klucel (hydroxypropylcellulose) (HPC)
[7] = dose: 100.0 mg/kg/injection, schedule: Q01DX009 (ip), vehicle: saline with Tween-80
[8] = dose: 50.0 mg/kg/injection, schedule: Q01DX009 (ip), vehicle: water
[9] = dose: 100.0 mg/kg/injection, schedule: Q01DX009 (ip), vehicle: water
[10] = dose: 200.0 mg/kg/injection, schedule: Q01DX009 (ip), vehicle: water
[11] = dose: 50.0 mg/kg/injection, schedule: Q01DX005 (ip), vehicle: saline with Tween-80
[12] = dose: 100.0 mg/kg/injection, schedule: Q01DX005 (ip), vehicle: saline with Tween-80
[13] = dose: 200.0 mg/kg/injection, schedule: Q01DX005 (ip), vehicle: saline with Tween-80
[14] = dose: 60.0 mg/kg/injection, schedule: Q01DX005 (ip), vehicle: saline with Tween-80
[15] = dose: 120.0 mg/kg/injection, schedule: Q01DX005 (ip), vehicle: saline with Tween-80
[16] = dose: 240.0 mg/kg/injection, schedule: Q01DX005 (ip), vehicle: saline with Tween-80

CC(C)CN=C(N)Nc1cccc(NC(=O)Nc2ccc(Cl)cc2)c1
T/C [1]: 92 % of control | T/C [2]: 86 % of control | T/C [3]: 109 % of control and 91 % of control

COc1cc2c[n+](C)c(-c3ccc(Cl)c(Cl)c3)c(OC)c2cc1OC
T/C [4]: 101 % of control | T/C (dose: 25.0 mg/kg/injection, schedule: Q04DX003 (ip), vehicle: saline): 100 % of control | T/C (dose: 50.0 mg/kg/injection, schedule: Q04DX003 (ip), vehicle: saline): 100 % of control

N#C/C(=C/c1cccs1)c1ccc(Cl)cc1
T/C [5]: 109 % of control | T/C [6]: 99 % of control

CC(C)C(NC(=O)CCNC(=O)OCc1ccccc1)C(=O)O (stereo not given)
T/C (dose: 100.0 mg/kg/injection, schedule: Q01DX005 (ip), vehicle: Klucel (hydroxypropylcellulose) (HPC)): 102 % of control | T/C (dose: 200.0 mg/kg/injection, schedule: Q01DX005 (ip), vehicle: Klucel (hydroxypropylcellulose) (HPC)): 100 % of control | T/C (dose: 400.0 mg/kg/injection, schedule: Q01DX005 (ip), vehicle: Klucel (hydroxypropylcellulose) (HPC)): 96 % of control

Cc1cccc(-c2cc3ccccc3c(Cl)n2)n1
T/C (dose: 100.0 mg/kg/injection, schedule: Q01DX001 (ip), vehicle: saline with Tween-80): 104 % of control | T/C (dose: 200.0 mg/kg/injection, schedule: Q01DX001 (ip), vehicle: saline with Tween-80): 100 % of control | T/C (dose: 400.0 mg/kg/injection, schedule: Q01DX001 (ip), vehicle: saline with Tween-80): 91 % of control

Cc1ccc(S(=O)(=O)NN=C2C3CCC2CC3)cc1
T/C [3]: 111 % of control | T/C [7]: 108 % of control | T/C (dose: 200.0 mg/kg/injection, schedule: Q01DX009 (ip), vehicle: saline with Tween-80): 118 % of control

Cc1nn(C(=O)c2cccnc2)c(-c2ccccc2)c1N=Nc1ccc(S(N)(=O)=O)cc1
T/C (dose: 100.0 mg/kg/injection, schedule: Q04DX002 (ip), vehicle: saline with Tween-80): 90 % of control | T/C (dose: 200.0 mg/kg/injection, schedule: Q04DX002 (ip), vehicle: saline with Tween-80): 90 % of control | T/C (dose: 400.0 mg/kg/injection, schedule: Q04DX002 (ip), vehicle: saline with Tween-80): 95 % of control

OC1CCC2SC1CCC2O (stereo not given)
T/C [8]: 95 % of control | T/C [9]: 102 % of control | T/C [10]: 108 % of control | T/C (dose: 400.0 mg/kg/injection, schedule: Q01DX009 (ip), vehicle: water): 100 % of control

CN1C(=O)C2CC(=O)NC(=O)C2C1=O (stereo not given)
T/C [11]: 97 % of control | T/C [12]: 96 % of control | T/C [13]: 101 % of control

COC(=O)C(COS(=O)(=O)c1ccc(C)cc1)NC(=O)OCc1ccc(OC)cc1 (stereo not given)
T/C (dose: 12.5 mg/kg/injection, schedule: Q01DX009 (ip), vehicle: water): 98 % of control | T/C (dose: 25.0 mg/kg/injection, schedule: Q01DX009 (ip), vehicle: water): 95 % of control | T/C [8]: 89 % of control | T/C [9]: 91 % of control | T/C [10]: 91 % of control

COC(=O)C[Si](C)(C)C
T/C [11]: 105 % of control | T/C [12]: 98 % of control | T/C [13]: 95 % of control

NC1=C(O)C(=O)C(c2cccc3ccccc23)O1 (stereo not given)
T/C [14]: 98 % of control | T/C [15]: 93 % of control | T/C [16]: 88 % of control

CC(/C=C/c1ccccc1)=N\Nc1c(F)c(F)c(F)c(F)c1F
T/C (dose: 50.0 mg/kg/injection, schedule: Q01DX009 (ip), vehicle: Klucel (hydroxypropylcellulose) (HPC)): 103 % of control | T/C (dose: 100.0 mg/kg/injection, schedule: Q01DX009 (ip), vehicle: Klucel (hydroxypropylcellulose) (HPC)): 102 % of control | T/C (dose: 200.0 mg/kg/injection, schedule: Q01DX009 (ip), vehicle: Klucel (hydroxypropylcellulose) (HPC)): 100 % of control

Clc1ccc(CSc2cnnc3ccccc23)c(Cl)c1
T/C (dose: 75.0 mg/kg/injection, schedule: Q01DX009 (ip), vehicle: suspension in saline): 96 % of control | T/C (dose: 150.0 mg/kg/injection, schedule: Q01DX009 (ip), vehicle: suspension in saline): 89 % of control | T/C (dose: 300.0 mg/kg/injection, schedule: Q01DX009 (ip), vehicle: suspension in saline): 89 % of control

O=c1cc(C(F)(F)F)c2cc3c(cc2o1)NCCC3
T/C [14]: 89 % of control | T/C [15]: 86 % of control

O=S(=O)(CCl)OCCCCOS(=O)(=O)CCl
T/C (dose: 25.0 mg/kg/injection, schedule: Q04DX003 (ip), vehicle: saline sonified): 109 % of control | T/C (dose: 50.0 mg/kg/injection, schedule: Q04DX003 (ip), vehicle: saline sonified): 104 % of control | T/C (dose: 66.0 mg/kg/injection, schedule: Q01DX009 (ip), vehicle: saline): 120 % of control | T/C (dose: 100.0 mg/kg/injection, schedule: Q04DX003 (ip), vehicle: saline sonified): 118 % of control | T/C (dose: 150.0 mg/kg/injection, schedule: Q01DX009 (ip), vehicle: saline): 150 % of control

CCO/C=C1/N=C(c2cc([N+](=O)[O-])cc([N+](=O)[O-])c2C)OC1=O
T/C (dose: 60.0 mg/kg/injection, schedule: Q01DX005 (ip), vehicle: saline + Tween-80 + alcohol): 93 % of control | T/C (dose: 120.0 mg/kg/injection, schedule: Q01DX005 (ip), vehicle: saline + Tween-80 + alcohol): 94 % of control | T/C (dose: 240.0 mg/kg/injection, schedule: Q01DX005 (ip), vehicle: saline + Tween-80 + alcohol): 88 % of control

O=C1C(O)=C(O)C(=O)c2cc3c(cc21)OCO3
T/C (dose: 60.0 mg/kg/injection, schedule: Q01DX005 (ip), vehicle: Klucel (hydroxypropylcellulose) (HPC)): 98 % of control | T/C (dose: 120.0 mg/kg/injection, schedule: Q01DX005 (ip), vehicle: Klucel (hydroxypropylcellulose) (HPC)): 102 % of control | T/C (dose: 240.0 mg/kg/injection, schedule: Q01DX005 (ip), vehicle: Klucel (hydroxypropylcellulose) (HPC)): 102 % of control

C=Cn1cc[n+](CC(=O)OC2CCC3C4CCC5=CC(=O)CCC5(C)C4CCC23C)c1 (stereo not given)
T/C (dose: 3.75 mg/kg/injection, schedule: Q01DX005 (ip), vehicle: Klucel (hydroxypropylcellulose) (HPC)): 97 % of control | T/C (dose: 7.5 mg/kg/injection, schedule: Q01DX005 (ip), vehicle: Klucel (hydroxypropylcellulose) (HPC)): 96 % of control

CCOP(O)(=S)OCC
T/C (dose: 12.5 mg/kg/injection, schedule: Q01DX001 (ip), vehicle: saline): 94 % of control | T/C (dose: 25.0 mg/kg/injection, schedule: Q01DX001 (ip), vehicle: saline): 100 % of control | T/C (dose: 100.0 mg/kg/injection, schedule: Q01DX001 (ip), vehicle: Klucel (hydroxypropylcellulose) (HPC)): 89 % of control | T/C (dose: 100.0 mg/kg/injection, schedule: Q01DX001 (ip), vehicle: saline): 103 % of control | T/C [5]: 92 % of control | T/C (dose: 100.0 mg/kg/injection, schedule: Q04DX003 (ip), vehicle: saline): 88 % of control | T/C (dose: 200.0 mg/kg/injection, schedule: Q01DX001 (ip), vehicle: Klucel (hydroxypropylcellulose) (HPC)): 108 % of control | T/C (dose: 200.0 mg/kg/injection, schedule: Q01DX001 (ip), vehicle: saline): 98 % of control and 106 % of control | T/C [6]: 89 % of control | T/C (dose: 200.0 mg/kg/injection, schedule: Q04DX003 (ip), vehicle: saline): 90 % of control | T/C (dose: 400.0 mg/kg/injection, schedule: Q01DX001 (ip), vehicle: Klucel (hydroxypropylcellulose) (HPC)): 92 % of control | T/C (dose: 400.0 mg/kg/injection, schedule: Q01DX001 (ip), vehicle: saline): 108 % of control and 106 % of control | T/C (dose: 400.0 mg/kg/injection, schedule: Q04DX003 (ip), vehicle: Klucel (hydroxypropylcellulose) (HPC)): 90 % of control | T/C (dose: 400.0 mg/kg/injection, schedule: Q04DX003 (ip), vehicle: saline): 101 % of control

CCN=C1SCCCS1
T/C [1]: 103 % of control | T/C [2]: 118 % of control | T/C [3]: 113 % of control and 119 % of control | T/C [7]: 117 % of control

COc1ccc2ccc3cccnc3c2n1
T/C [14]: 93 % of control | T/C [15]: 99 % of control | T/C [16]: 105 % of control

CC[CH2][Sn]([F])([F])[CH2]CC
T/C (dose: 0.78 mg/kg/injection, schedule: Q04DX003 (ip), vehicle: saline): 105 % of control | T/C (dose: 1.56 mg/kg/injection, schedule: Q04DX003 (ip), vehicle: saline): 100 % of control and 114 % of control | T/C (dose: 3.12 mg/kg/injection, schedule: Q04DX003 (ip), vehicle: saline): 102 % of control | T/C (dose: 6.25 mg/kg/injection, schedule: Q04DX003 (ip), vehicle: saline): 105 % of control | T/C [4]: 114 % of control

From PubChem BioAssay AID330 (DTP/NCI, 2004)
